Test results published in patent US4336243A, “Transdermal nitroglycerin pad” (G. D. Searle & Co., priority 1981, dated 1982).

How the values were obtained:
[1] = Percutaneous absorption of C^14 nitroglycerin, neat liquid application (urinary radioactivity); type: in vivo, rhesus monkey (Macaca mulata); details: for Percent Dose Absorbed (Mean + SEM): neat liquid
Description: Studies to determine the topical availability of nitroglycerin were carried out in vivo with the rhesus monkey (Macaca mulata).
The animals were placed in metabolism chairs for the length of time of the dose application. Urine was collected while the animals were still in the metabolism chairs. After the dose was removed, the animals were moved to a metabolism cage for continued urine collection.
Nitroglycerin, labeled with carbon-14, was applied to the skin. The site of application can be any part of the body; however, the ventral forearm or upper part of the inner arm was used for convenience. The area of application is generally small, i.e., 2-10 cm^2; however, any area can be used. The final concentration is expressed as an amount per unit area of skin (i.e. 1.0 mg/1 cm^2).
In the case of liquid, cream or ointment formulations, the dose was spread over the exact skin area. In the case of the pads of the present invention, they were taped to the skin. In the case of liquids, cream or ointments, the treated area was covered with aluminum foil and tape. In all cases, the tape and foil and where applicable the nitroglycerin pads were removed after 24 hours and the site of application was wiped three times with gauze soaked with ethanol, then washed with soap and water.
Absorption is quantified on the basis of the percent of radioactivity excreted in urine for 3 days following application of a known amount of the labeled nitroglycerin to the skin. Daily urinary excretion values are collected for excretion of radioactivity by other routes and retention of radioactivity in the body by the administration of an intravenous dose of C^14 -labeled nitroglycerin according to the following formula: [formula]
In the case of C^14 -labeled nitroglycerin applied via the nitroglycerin pad of the present invention, the device can be removed from the skin and analyzed for residual radioactivity. The amount of radioactivity which has been removed from the device, by comparative assays with devices not applid to skin, is considered to have been released in vivo during the time of skin application. Analysis for radioactivity can be conducted using any commercially available liquid scintillation counter. To determine the amount of radioactivity in this study, 1.0 ml of radioactive urine was mixed with scintillation fluid (10 ml of PCS solubilizer, Amersham Corporation, Arlington Heights, Ill.). The urine mixed with scintillant is counted for radioactivity in a liquid scintillation counter and the amount of radioactivity determined.

[2] = Effect of added hydrophobic solvents on nitroglycerin transport and delivery; details: miglyol oil 812 and isopropyl palmitate alone, or with mineral oil, added to the hydrophilic solvent system in the polymer matrix

SMILES: O=[N+]([O-])OCC(CO[N+](=O)[O-])O[N+](=O)[O-] [C^14 Nitroglycerin, nitroglycerin]
- Percent Dose Absorbed (Mean + SEM) ([1]; topical concentration 0.01 mg/cm^2, 24 hours): 41.8 ± 3.2%
- Percent Dose Absorbed (Mean + SEM) ([1]; topical concentration 0.1 mg/cm^2, 24 hours): 43.5 ± 3.3%
- Percent Dose Absorbed (Mean + SEM) ([1]; topical concentration 1.0 mg/cm^2, 24 hours): 36.6 ± 3.7%
- Percent Dose Absorbed (Mean + SEM) ([1]; topical concentration 7.0 mg/cm^2, 24 hours): 22.6 ± 4.2%
- Percent Dose Absorbed (Mean + SEM) ([1]; topical concentration 10.0 mg/cm^2, 24 hours): 7.8 ± 0.7%
- absorption ([1]; topical concentrations of 7 and 10 mg/cm^2): decreased absorption
- maximum optimum dosage for good bioavailability ([1]; topical, neat nitroglycerin): 5 mg/cm^2
- drug delivery [2]: increased
- drug transport [2]: greatly enhanced
